# Laboratory results published in patent publication EP0467099A2, “Substituted acrylophenons” (BAYER AG, priority 1990, dated 1992).
# Legend:
# [1] = tested on: Testpflanzen; assay: Post-emergence test (herbicidal damage rating); format: in vivo; settings: plants 5 - 15 cm sprayed, rated after three weeks, result in words only; for Wirksamkeit (Schädigungsgrad der Pflanzen): compared with reference 2-[2-(4,6-Dimethoxy)-pyrimidinylthio]-benzoesäuremethylester (EP 223406/Bsp. 11); for Nutzpflanzenselektivität: crop selectivity compared with reference 2-[2-(4,6-Dimethoxy)-pyrimidinylthio]-benzoesäuremethylester (EP 223406/Bsp. 11)
# Source text: Lösungsmittel: 5 Gewichtsteile Aceton
# Emulgator: 1 Gewichtsteil Alkylarylpolyglykolether
# (§1) Zur Herstellung einer zweckmäßigen Wirkstoffzubereitung vermischt man 1 Gewichtsteil Wirkstoff mit der angegebenen Menge Lösungsmittel, gibt die angegebene Menge Emulgator zu und verdünnt das Konzentrat mit Wasser auf die gewünschte Konzentration.
# Mit der Wirkstoffzubereitung spritzt man Testpflanzen, welche eine Höhe von 5 - 15 cm haben, so, daß die jeweils gewünschten Wirkstoffmengen pro Flächeneinheit ausgebracht werden. Die Konzentration der Spritzbrühe wird so gewählt, daß in 1000 I Wasser/ha die jeweils gewünschten Wirkstoffmengen ausgebracht werden. Nach drei Wochen wird der Schädigungsgrad der Pflanzen bonitiert in % Schädigung im Vergleich zur Entwicklung der unbehandelten Kontrolle.
# Es bedeuten: • 0 % = keine Wirkung (wie unbehandelte Kontrolle) • 100 % = totale Vernichtung
# [2] = tested on: Testpflanzen; assay: Pre-emergence test (herbicidal damage rating); format: in vivo; settings: seeds watered 24 h after sowing, rated after three weeks, compared with reference 2-[2-(4,6-Dimethoxy)-pyrimidinylthio]-benzoesäuremethylester (EP 223406/Bsp. 11), result in words only
# Source text: Lösungsmittel: 5 Gewichtsteile Aceton Emulgator: 1 Gewichtsteil Alkylarylpolyglykolether
# as §1
# Samen der Testpflanzen werden in normalen Boden ausgesät und nach 24 Stunden mit der Wirkstoffzubereitung begossen. Dabei hält man die Wassermenge pro Flächeneinheit zweckmäßigerweise konstant. Die Wirkstoffkonzentration in der Zubereitung spielt keine Rolle, entscheidend ist nur die Aufwandmenge des Wirkstoffs pro Flächeneinheit. Nach drei Wochen wird der Schädigungsgrad der Pflanzen bonitiert in % Schädigung im Vergleich zur Entwicklung der unbehandelten Kontrolle. Es bedeuten: • 0 % = keine Wirkung (wie unbehandelte Kontrolle) • 100 % = totale Vernichtung
SMILES,Wirksamkeit (Schädigungsgrad der Pflanzen) [1],Nutzpflanzenselektivität [1],Wirksamkeit (Schädigungsgrad der Pflanzen) [2]
"COc1cc(OC)nc(Oc2ccccc2C(=O)C=CN2CCCCCC2)n1 [Beispiel 1, 3-(1-Hexahydroazepino)-1-{2-[2-(4,6-dimethoxy)-pyrimidinyloxy]-phenyl}-prop-2-en-1-on]",deutliche Überlegenheit,deutliche Überlegenheit,deutliche Überlegenheit
"COc1cc(OC)nc(Oc2ccccc2C(=O)C(C)=CN(C)C)n1 [Beispiel 2, 3-Dimethylamino-2-methyl-1-{2-[2-(4,6-dimethoxy)-pyrimidinyloxy]-phenyl}-prop-2-en-1-on]",deutliche Überlegenheit,deutliche Überlegenheit,
"COc1cc(OC)nc(Oc2ccccc2C(=O)C=P(c2ccccc2)(c2ccccc2)c2ccccc2)n1 [Beispiel 3, {2-[2-(4,6-Dimethoxy)-pyrimidinyloxy]-benzoyl}-methylentriphenylphosphoran]",deutliche Überlegenheit,deutliche Überlegenheit,
